Results published in patent US11357873B2, “Chiral cyclen compounds and their uses” (THE HONG KONG POLYTECHNIC UNIVERSITY, priority 2016, dated 2022).

Key:
[1] = Circularly polarized luminescence (CPL), dissymmetry factor glum; format: physicochemical; conditions: wavelength in parentheses in the cell
Method: (§1) Steady-state room temperature photoluminescence measurements were performed with an Edinburgh Instrument FLSP920 spectrophotometer equipped with a Xe900 continuous xenon lamp, μF920 microsecond flash lamp and a single photon counting photomultiplier tube. Spectra were corrected with the bundled F900 software. Solution-state measurements were conducted using quartz curettes of 10 mm path length. CPL measurements were conducted on a custom built spectrometer^63 (in Durham University) consisting of a laser driven light source (Energetiq EQ-99 LDLS, spectral range 170 to 2100 nm) coupled to an Acton SP2150 monochromator (600 g/nm, 300 nm Blaze) that allows excitation wavelengths to be selected with a 6 nm FWHM band-pass. The collection of the emitted light was facilitated (90° angle set up, 1 cm path length quartz curette) by a Lock-In Amplifier (Hinds Instruments Signaloc 2100) and Photoelastic Modulator (Hinds Instruments PEM-90). The differentiated light was focused onto an Acton SP2150 monochromator (1200 g/nm, 500 nm Blaze) equipped with a high sensitivity cooled Photo Multiplier Tube (H10723-20 Extended red-multialkali PMT based photosensor (5V)). Spectra were recorded using a 5 spectral average sequence in the range of 570-720 nm with 0.5 nm spectral intervals and 500 μs integration time.

[2] = Stability of isomers on heating and storage by 1H NMR; format: physicochemical
Source text: In aqueous solution, the ratio of TSA/SA isomers of Eu(III) and Yb(III) complexes in DOTA-like systems can be easily determined by ^1H NMR as two well-defined sets of six resonances are observed for the diastereotopic protons in CH2CO and NCH2CH2N.^13 Although the Gd(III) complexes cannot be analyzed by NMR, their ratio of isomers are expected to be similar to those of the Eu(III) and Yb(III) complexes because the ionic radius of Gd(III) is similar to the ionic radius of Eu(III) and Yb(III).
The conformational properties of the lanthanide complexes were investigated by both HPLC and NMR spectroscopy. The ^1H NMR spectra of the four europium chiral DOTA-based complexes are compared in FIG. 3. […] In the cases of [EuL3]^− and [EuL4]^−, the twisted antiprismatic isomers were more dominant, with the ratio of 6.52 for [EuL3]^− and 13.50 for [EuL4]^− observed.
The stability of the complexes toward racemization over time was also monitored by ^1H NMR (FIG. 20). […] Nevertheless, the original set of peaks existed predominately when the pD was adjusted from 6.0 to 7.5 and further heated for 12 h at 90° C. It can be observed that while the purity of the ligands may not be highly satisfactory, pure complexes could be obtained by HPLC separation after complexation. This phenomenon indicates the purification of DOTA-based ligands should be handled with care.

[3] = Absorption and photoluminescence (quantum yield, lifetime, q); format: physicochemical; parameters: λabs(max): unit not given here
Method: as §1, with “Absorption spectra of complexes were measured with HP UV-8453 spectrophotometer. Steady-state” for “Steady-state”, “time. The recorded CPL spectrum underwent a 25% Fourier transformation smoothening protocol using Origin 8.0 Software (Origin Labs) to enhance appearance (all calculations were carried out using raw spectral data).” for “time.”
The shift in absorption is caused by electronic communication between the electropositive lanthanide center and the chromophore. […] These are not observed for 11, however, as we believe the steric effect of the planar phenyl ring of the benzyl group could not be alleviated by appropriate rotation, whereas that of the isobutyl group could.
The luminescence quantum yields of the complexes are decent in water and HEPES solution, although they are much higher in DMSO, due to the nonradiative quenching by O—H oscillators of water molecules in the second coordination sphere (Table 6). The intrinsic quantum yields^61—a calculated value evaluating the quantum yield of Eu(III) via direct metal excitation—of the complexes are calculated, and, as expected, the values are very similar, except for 10. The higher value corroborates with the shift in absorption maximum, for which we believe the reason is due to a shorter europium—chromophore distance and better interaction. On the other hand, the sensitization efficiencies of the complexes vary. […] The relatively remarkable ηsens of 13 is attributed to its structural rigidity, as both the tetraaza backbone and the acetate arms are modified with a chrial substituent, i.e., double chirality. The double chirality is also attributed for the increase in luminescence quantum yield compared to that of 12a/12b.

[4] = target: BSA (Bos taurus, UniProt P02769); experiment: Protein binding with BSA determined by ICP-MS; format: in vitro ADME
Chain of BSA (P02769 25-607): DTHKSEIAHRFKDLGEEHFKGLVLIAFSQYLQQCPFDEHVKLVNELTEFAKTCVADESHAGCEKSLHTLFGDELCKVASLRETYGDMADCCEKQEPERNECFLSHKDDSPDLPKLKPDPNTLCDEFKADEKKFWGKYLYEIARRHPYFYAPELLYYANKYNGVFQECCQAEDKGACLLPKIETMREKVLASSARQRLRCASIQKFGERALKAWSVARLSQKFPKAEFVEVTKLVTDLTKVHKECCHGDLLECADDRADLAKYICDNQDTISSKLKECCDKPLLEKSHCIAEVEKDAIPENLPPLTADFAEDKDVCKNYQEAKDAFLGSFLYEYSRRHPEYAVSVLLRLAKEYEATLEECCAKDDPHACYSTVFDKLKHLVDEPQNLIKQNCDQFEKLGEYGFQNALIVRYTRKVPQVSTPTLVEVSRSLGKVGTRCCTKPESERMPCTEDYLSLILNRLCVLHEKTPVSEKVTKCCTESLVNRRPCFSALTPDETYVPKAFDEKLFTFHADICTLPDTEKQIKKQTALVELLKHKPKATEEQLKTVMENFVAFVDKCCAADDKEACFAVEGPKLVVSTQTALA

[5] = tested on: human plasma; experiment: Protein binding with human plasma determined by ICP-MS; format: in vitro ADME
[6] = Kinetic inertness: competitive titration with DTPA, UPLC-HRMS; format: physicochemical; conditions: 1000 eq. of DTPA, pH 5.0, 0.1 M ammonium acetate, shaken 7 days; for decomplexation in presence of competitive ligand DTPA: room temperature
Method: Experimental procedure: Stock solution of [GdL1]^− and [GdL2]^− were prepared in 0.1 M ammonium acetate, 0˜1000 equivalents of DTPA were added into the solutions, the final concentrations of the gadolinium complexes were 14.8 mM for [GdL1]^− and 21.6 mM for [GdL2]^− (6 mL). The mixtures were shaken at room temperature, and samples of 1 ml of solutions were taken out for UPLC-HRMS analysis on day 3 and day 7.
Results: Competitive bath titrations were performed with the Gd analogues, [GdL1]^− and [GdL2]^−, in the presence of 0-1000 equivalents of competitive ligand DTPA (pentetic acid or diethylenetriaminepentaacetic acid) in 0.1 M ammonium acetate solution. After being shaken for 7 days (1000 eq. of DTPA, pH 5.0), the mixtures were analyzed by UPLC-HRMS. […] This finding is of significant importance for future use of the complexes in biomedical applications.

[7] = Relaxivity (r1, r2) measurement of Gd(III) complexes in water, BSA and human plasma; format: physicochemical; parameters: r1 Human Plasma (1.5 T): unit not given beside the values; conditions: 37° C.
Method: This is very important because the huge difference in the inner-sphere coordinated water exchange rate between the two isomers is a key factor for applications, for example, as MRI contrast agents. To show their potential value, the two diastereomers of [GdL2]^− ([GdL2A]^− and [GdL2B]^−) were separated and their relaxivities were measured. The relaxivities of [GdL1]^−, [GdL2]^−, [GdL2A]^−, [GdL2B]^− and [GdDOTA]^− in water at different magnetic strengths (1.5 T and 11.7 T) were compared, with or without the presence of BSA and human plasma (1.5 T) (Table 1). It is clearly seen that the complexes of [GdL1]^−, [GdL2A]^− and [GdL2B]^− have relaxivity properties similar to that of the [GdDOTA]^− complex.

[8] = ICP-MS, summary of Tables 2 and 3
[9] = Table 2, sample A, conc. before 0.32286251 mM
[10] = Table 2, sample B, conc. before 0.15917209 mM
[11] = Table 2, sample C, conc. before 0.02070731 mM
[12] = Table 3, sample A, conc. before 0.3714242 mM
[13] = Table 3, sample B, conc. before 0.1551093 mM
[14] = Table 3, sample C, conc. before 0.0251512 mM
[15] = Table 2, sample A, conc. before 0.3167862 mM
[16] = Table 2, sample B, conc. before 0.162104 mM
[17] = Table 2, sample C, conc. before 0.021152 mM
[18] = Table 3, sample A, conc. before 0.3699171 mM
[19] = Table 3, sample B, conc. before 0.134016 mM
[20] = Table 3, sample C, conc. before 0.0189002 mM

Compound: CC[C@@H]1CN(CC(=O)[O-])[C@H](CC)CN(Cc2cc(C#Cc3c(OC)cc(OC)cc3OC)cc(P(C)(=O)[O-])n2)[C@H](CC)CN(CC(=O)[O-])[C@H](CC)CN1CC(=O)[O-].[Eu+3] [Complex 9]
- glum ΔJ = 1 (λ) DMSO ([1]; DMSO): +0.17 (591)
- glum ΔJ = 3 (λ) DMSO ([1]; DMSO): +0.13 (657)
- glum ΔJ = 1 (λ) H2O ([1]; H2O): +0.12 (591)
- glum ΔJ = 3 (λ) H2O ([1]; H2O): +0.21 (653)
- 1H NMR spectrum after storage (stability toward racemization) ([2]; 9 months at room temperature, pD 6.0, D2O): consistent after 9 months of storage
- 1H NMR spectrum upon heating (stability toward racemization) ([2]; heating at 90° C.): a new set of peaks appeared
- R, I(5D0 → 7F2)/I(5D0 → 7F1) ([3]; asymmetry ratio, room temperature, 10 in MeOH, 11 in DMSO): 2.44
- q (Parker's) ([3]; from lifetimes in H2O and D2O, first value of cell): 0.02
- q (Horrocks') ([3]; from lifetimes in H2O and D2O, second value of cell): 0.05
- ΦEuEu (%) ([3]; intrinsic quantum yield, calculated value): 28.1%
- τD2O/MeOD ([3]; luminescence lifetime, 5D0 → 7F2 transition, D2O (MeOD for 10)): 1.77 ms
- τH2O/MeOH ([3]; luminescence lifetime, 5D0 → 7F2 transition, H2O (MeOH for 10)): 1.20 ms
- ΦDMSO (%) ([3]; luminescence quantum yield in DMSO): 53.0%
- ΦH2O/MeOH (%) ([3]; luminescence quantum yield relative to quinine sulfate in 0.1M H2SO4, H2O (MeOH for 10, insoluble in H2O)): 14.9%
- ΦHEPES (%) ([3]; luminescence quantum yield, 0.1M HEPES buffer, pH 7.4): 14.3%
- λabs(max) ([3]; room temperature, 10 measured in MeOH, 11 in DMSO): 356
- ηsens (%) ([3]; sensitization efficiency, calculated according to ref 61): 53.0%

Compound: C[C@H]1CN(CC(=O)[O-])[C@@H](C)CN(CC(=O)[O-])[C@@H](C)CN(CC(=O)[O-])[C@@H](C)CN1CC(=O)[O-].[Gd+3] [[GdL1]^−]
- complex binding with BSA [4, 8]: less than 5%
- % bound In BSA [4, 9]: (1.3% bound)
- Conc. (mM) In BSA after [4, 9]: 0.3185 mM
- % bound In BSA [4, 10]: (1.5% bound)
- Conc. (mM) In BSA after [4, 10]: 0.1568 mM
- % bound In BSA [4, 11]: (3.7% bound)
- Conc. (mM) In BSA after [4, 11]: 0.02 mM
- % bound In BSA [4, 12]: (1.9% bound)
- Conc. (mM) In BSA after [4, 12]: 0.3641 mM
- % bound In BSA [4, 13]: (3.4% bound)
- Conc. (mM) In BSA after [4, 13]: 0.1498 mM
- % bound In BSA [4, 14]: (2.2% bound)
- Conc. (mM) In BSA after [4, 14]: 0.02458 mM
- complex binding with human plasma [5, 8]: less than 5%
- % bound In Plasma [5, 15]: (2.2% bound)
- Conc. (mM) In Plasma after [5, 15]: 0.3097 mM
- % bound In Plasma [5, 16]: (1.8% bound)
- Conc. (mM) In Plasma after [5, 16]: 0.1592 mM
- % bound In Plasma [5, 17]: (4.7% bound)
- Conc. (mM) In Plasma after [5, 17]: 0.02015 mM
- % bound In Plasma [5, 18]: (2.6% bound)
- Conc. (mM) In Plasma after [5, 18]: 0.3602 mM
- % bound In Plasma [5, 19]: (2.2% bound)
- Conc. (mM) In Plasma after [5, 19]: 0.1311 mM
- % bound In Plasma [5, 20]: (3.9% bound)
- Conc. (mM) In Plasma after [5, 20]: 0.01816 mM
- ratio of TSA/SA after DTPA challenge [6]: remained the same
- decomplexation in presence of competitive ligand DTPA [6]: No trace of any decomplexation
- r1 4.5 w/v BSA (1.5 T) [7]: 4.1
- r1 Human Plasma (1.5 T) [7]: 3.9
- r1 Water (1.5 T) [7]: 3.4
- r1 Water (11.7 T) [7]: 2.8

Compound: CC[C@H]1CN(CC(=O)[O-])[C@@H](CC)CN(CC(=O)[O-])[C@@H](CC)CN(CC(=O)[O-])[C@@H](CC)CN1CC(=O)[O-].[Gd+3] [[GdL2]^−]
- ratio of TSA/SA after DTPA challenge [6]: remained the same
- decomplexation in presence of competitive ligand DTPA [6]: No trace of any decomplexation
- r1 4.5 w/v BSA (1.5 T) [7]: 3.6
- r1 Human Plasma (1.5 T) [7]: 2.9
- r1 Water (1.5 T) [7]: 2.6
- r1 Water (11.7 T) [7]: 3.1
